From patent publication US8895733B2 (Novartis AG, priority 2010, dated 2014) come the findings set out here.

The target in this experiment is T1, Nav 1.7 (Homo sapiens, UniProt Q15858).
T1 construct: expressed in transfected cells
T1 sequence (Q15858 whole entry): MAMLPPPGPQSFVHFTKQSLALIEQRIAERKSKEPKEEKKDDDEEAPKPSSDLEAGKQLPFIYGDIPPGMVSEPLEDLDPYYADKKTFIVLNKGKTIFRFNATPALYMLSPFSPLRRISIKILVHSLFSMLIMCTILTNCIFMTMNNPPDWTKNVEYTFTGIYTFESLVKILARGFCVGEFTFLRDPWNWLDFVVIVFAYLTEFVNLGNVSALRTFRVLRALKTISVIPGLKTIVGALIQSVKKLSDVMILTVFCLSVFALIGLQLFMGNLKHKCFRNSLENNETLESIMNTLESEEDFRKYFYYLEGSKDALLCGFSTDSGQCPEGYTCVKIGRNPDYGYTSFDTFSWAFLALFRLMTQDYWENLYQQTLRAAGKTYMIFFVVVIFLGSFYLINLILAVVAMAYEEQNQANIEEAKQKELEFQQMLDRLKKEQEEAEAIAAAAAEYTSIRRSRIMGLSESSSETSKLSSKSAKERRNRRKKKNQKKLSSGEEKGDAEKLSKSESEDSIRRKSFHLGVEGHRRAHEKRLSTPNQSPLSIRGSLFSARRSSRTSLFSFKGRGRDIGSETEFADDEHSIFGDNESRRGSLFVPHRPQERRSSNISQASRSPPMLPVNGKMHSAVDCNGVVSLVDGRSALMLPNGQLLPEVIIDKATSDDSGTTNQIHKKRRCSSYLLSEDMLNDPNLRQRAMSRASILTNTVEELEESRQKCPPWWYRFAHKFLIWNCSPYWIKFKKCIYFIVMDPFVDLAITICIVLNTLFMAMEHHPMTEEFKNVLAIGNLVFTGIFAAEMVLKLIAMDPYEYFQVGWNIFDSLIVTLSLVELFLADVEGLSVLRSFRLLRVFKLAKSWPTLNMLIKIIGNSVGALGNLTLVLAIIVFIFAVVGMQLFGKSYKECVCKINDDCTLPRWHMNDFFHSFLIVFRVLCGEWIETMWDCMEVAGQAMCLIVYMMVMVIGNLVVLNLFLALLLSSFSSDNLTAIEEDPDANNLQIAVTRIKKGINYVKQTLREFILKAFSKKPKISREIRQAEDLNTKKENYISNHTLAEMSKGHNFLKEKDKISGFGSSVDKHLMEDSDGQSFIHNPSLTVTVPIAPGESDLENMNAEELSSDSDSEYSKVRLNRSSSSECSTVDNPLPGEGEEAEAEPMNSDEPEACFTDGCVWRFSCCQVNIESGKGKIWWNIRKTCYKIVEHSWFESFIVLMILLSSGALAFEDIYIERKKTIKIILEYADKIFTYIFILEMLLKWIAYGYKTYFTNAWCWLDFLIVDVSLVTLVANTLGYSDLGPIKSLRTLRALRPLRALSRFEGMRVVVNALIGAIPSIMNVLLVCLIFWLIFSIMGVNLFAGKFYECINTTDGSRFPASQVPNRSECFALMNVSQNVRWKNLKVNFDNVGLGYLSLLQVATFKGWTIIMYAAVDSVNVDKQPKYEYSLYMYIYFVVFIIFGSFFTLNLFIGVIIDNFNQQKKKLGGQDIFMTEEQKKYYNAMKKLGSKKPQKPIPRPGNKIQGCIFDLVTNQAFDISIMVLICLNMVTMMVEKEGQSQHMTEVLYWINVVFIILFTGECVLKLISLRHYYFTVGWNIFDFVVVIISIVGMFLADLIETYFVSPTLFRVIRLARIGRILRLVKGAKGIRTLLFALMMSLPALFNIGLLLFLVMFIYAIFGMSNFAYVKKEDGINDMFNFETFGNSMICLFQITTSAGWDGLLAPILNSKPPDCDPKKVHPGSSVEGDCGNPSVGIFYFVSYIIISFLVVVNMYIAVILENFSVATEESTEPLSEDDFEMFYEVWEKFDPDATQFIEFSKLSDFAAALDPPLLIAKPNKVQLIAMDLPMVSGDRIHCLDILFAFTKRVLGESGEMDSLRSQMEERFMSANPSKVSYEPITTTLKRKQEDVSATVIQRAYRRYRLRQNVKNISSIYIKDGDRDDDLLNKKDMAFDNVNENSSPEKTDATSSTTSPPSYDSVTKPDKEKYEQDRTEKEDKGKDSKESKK
The experiment can be described thus: Whole-cell voltage clamp electrophysiology, automated patch clamp (marker c in Table of Examples). The format is cell-based. To be noted: marker c = Automated patch clamp data; read-out: Nav 1.7 activity. In outline: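 A voltage protocol weighted toward inactivated-state block was used to test compounds on stably expressing cells, with pulses from −65 mV holding to −10 mV test and −100 mV. Currents came from whole-cell automated patch-clamp recordings, either IonWorks Quattro or other automated instruments, usually in perforated-patch mode.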
For orientation: Patch clamp records ionic current or voltage across a cell membrane.
Turning to `Nc1nc(Nc2ccccc2)nc(-c2noc(N3CCC(COCC4CC4)CC3)n2)n1` [Example 214, 6-(5-{4-[(cyclopropylmethoxy)methyl]piperidin-1-yl}-1,2,4-oxadiazol-3-yl)-2-N-phenyl-1,3,5-triazine-2,4-diamine], the IC50 amounted to 0.233 µM.

As for `Nc1nc(Nc2ccccc2)nc(-c2noc(N3CCC(COC4CCC4)CC3)n2)n1` [Example 215, 6-{5-[4-(cyclobutoxymethyl)piperidin-1-yl]-1,2,4-oxadiazol-3-yl}-2-N-phenyl-1,3,5-triazine-2,4-diamine], the IC50 stood at 0.28 µM. For the compound `CN(c1ccccc1)c1nc(N)nc(-c2noc(N3CCC(COC4CCC4)CC3)n2)n1` [Example 217, 6-{5-[4-(cyclobutoxymethyl)piperidin-1-yl]-1,2,4-oxadiazol-3-yl}-2-N-methyl-2-N-phenyl-1,3,5-triazine-2,4-diamine], the IC50 is 0.415 µM. Turning to `Nc1nc(Nc2ccccc2)nc(-c2noc(C(=O)NC3CCCC3)n2)n1` [Example 218, 3-[4-amino-6-(phenylamino)-1,3,5-triazin-2-yl]-N-cyclopentyl-1,2,4-oxadiazole-5-carboxamide], the IC50 stood at 2.51 µM. For `Nc1nc(Nc2cccc(F)c2)nc(-c2noc(C(=O)NC3CCCC3)n2)n1` [Example 219, 3-{4-amino-6-[(3-fluorophenyl)amino]-1,3,5-triazin-2-yl}-N-cyclopentyl-1,2,4-oxadiazole-5-carboxamide], the IC50 stood at 1.96 µM.

Take `Nc1nc(Nc2ccccc2)nc(-c2noc(C(=O)N3CCCC3)n2)n1` [Example 220, 2-N-phenyl-6-{5-[(pyrrolidin-1 - yl)carbonyl]-1,2,4-oxadiazol-3-yl}-1,3,5-triazine-2,4-diamine]: the IC50 is 0.833 µM.

Consider `Nc1nc(Nc2ccccc2)nc(-c2noc(N3CCCCC3)n2)n1` [Example 221, 2-N-Phenyl-6-[5-(piperidin-1-yl)-1,2,4-oxadiazol-3-yl]-1,3,5-triazine-2,4-diamine], for which the IC50 worked out at 0.729 µM. Consider `NC(=O)c1nc(-c2nc(N)nc(Nc3ccccc3)n2)no1` [Example 222, 3-[4-amino-6-(phenylamino)-1,3,5-triazin-2-yl]-1,2,4-oxadiazole-5-carboxamide], for which the IC50 worked out at 7.71 µM. In the case of `NC(=O)c1nc(-c2nc(N)nc(Nc3cccc(F)c3)n2)no1` [Example 223, 3-{4-amino-6-[(3-fluorophenyl)amino]-1,3,5-triazin-2-yl}-1,2,4-oxadiazole-5-carboxamide], the IC50 came to 6.5 µM. For the compound `Nc1nc(Nc2cccc(F)c2)nc(-c2noc(C(=O)NC3CCC3)n2)n1` [Example 224, 3-{4-amino-6-[(3-fluorophenyl)amino]-1,3,5-triazin-2-yl}-N-cyclobutyl-1,2,4-oxadiazole-5-carboxamide], the IC50 amounted to 1.52 µM. For `Nc1nc(Nc2cccc(F)c2)nc(-c2noc(C(=O)NC3Cc4ccccc4C3)n2)n1` [Example 225, 3-{4-amino-6-[(3-fluorophenyl)amino]-1,3,5-triazin-2-yl}-N-(2,3-dihydro-1H-inden-2-yl)-1,2,4-oxadiazole-5-carboxamide], the IC50 was 0.776 µM. On to `Nc1nc(Nc2cccc(F)c2)nc(-c2noc(C(=O)NC3CCc4ccccc43)n2)n1` (stereo not drawn) [Example 226, 3-{4-amino-6-[(3-fluorophenyl)amino]-1,3,5-triazin-2-yl}-N-(2,3-dihydro-1H-inden-1-yl)-1,2,4-oxadiazole-5-carboxamide], for which the IC50 stood at 3.42 µM.

For the compound `Nc1nc(Nc2cccc(F)c2)nc(-c2noc(C(=O)N3CCCC3)n2)n1` [Example 227, 2-N-(3-fluorophenyl)-6-{5-[(pyrrolidin-1-yl)carbonyl]-1,2,4-oxadiazol-3-yl}-1,3,5-triazine-2,4-diamine], the IC50 was determined as 0.241 µM. For the compound `Nc1nc(Nc2ccccc2)nc(-c2noc(C(=O)NC3CCC3)n2)n1` [Example 228, 3-[4-amino-6-(phenylamino)-1,3,5-triazin-2-yl]-N-cyclobutyl-1,2,4-oxadiazole-5-carboxamide], the IC50 is 0.401 µM.

In the case of `Nc1nc(Nc2ccccc2)nc(-c2noc(C(=O)NC3Cc4ccccc4C3)n2)n1` [Example 229, 3-[4-amino-6-(phenylamino)-1,3,5-triazin-2-yl]-N-(2,3-dihydro-1H-inden-2-yl)-1,2,4-oxadiazole-5-carboxamide], the IC50 stood at 9.19 µM.

For `Nc1nc(Nc2ccccc2)nc(-c2noc(C(=O)N3Cc4ccccc4C3)n2)n1` [Example 230, 6-{5-[(2,3-dihydro-1H-isoindol-2-yl)carbonyl]-1,2,4-oxadiazol-3-yl}-2-N-phenyl-1,3,5-triazine-2,4-diamine], the IC50 worked out at 9.25 µM.

Take `Nc1nc(Nc2ccccc2)nc(-c2noc(NC3CCCC3)n2)n1` [Example 231, 6-[5-(cyclopentylamino)-1,2,4-oxadiazol-3-yl]-2-N-phenyl-1,3,5-triazine-2,4-diamine]: the IC50 was determined as 3.21 µM. For `Nc1nc(Nc2cccc(F)c2)nc(-c2noc(C(=O)N3CCOCC3)n2)n1` [Example 232, 2-N-(3-fluorophenyl)-6-{5-[(morpholin-4-yl)carbonyl]-1,2,4-oxadiazol-3-yl}-1,3,5-triazine-2,4-diamine], the IC50 came out at 9.33 µM.

Regarding `Nc1nc(Nc2cccc(F)c2)nc(-c2noc(C(=O)N[C@@H]3CCOC3)n2)n1` [Example 233, 3-{4-amino-6-[(3-fluorophenyl)amino]-1,3,5-triazin-2-yl}-N-[(3R)-oxolan-3-yl]-1,2,4-oxadiazole-5-carboxamide], the IC50 came out at 5.66 µM. For `CC(C)NC(=O)c1nc(-c2nc(N)nc(Nc3cccc(F)c3)n2)no1` [Example 234, 3-{4-amino-6-[(3-fluorophenyl)amino]-1,3,5-triazin-2-yl}-N-(propan-2-yl)-1,2,4-oxadiazole-5-carboxamide], the IC50 was found to be 1.27 µM.

On to `Nc1nc(Nc2cccc(F)c2)nc(-c2noc(NC3CCCC3)n2)n1` [Example 235, 6-[5-(cyclopentylamino)-1,2,4-oxadiazol-3-yl]-2-N-(3-fluorophenyl)-1,3,5-triazine-2,4-diamine], for which the IC50 is 1.69 µM. For the compound `Nc1nc(Nc2cccc(F)c2)nc(-c2noc(N3CCCCC3)n2)n1` [Example 236, 2-N-(3-fluorophenyl)-6-[5-(piperidin-1-yl)-1,2,4-oxadiazol-3-yl]-1,3,5-triazine-2,4-diamine], the IC50 is 0.406 µM. On to `COC1CCN(c2nc(-c3nc(N)nc(Nc4cccc(F)c4)n3)no2)CC1` [Example 237, 2-N-(3-fluorophenyl)-6-[5-(4-methoxypiperidin-1-yl)-1,2,4-oxadiazol-3-yl]-1,3,5-triazine-2,4-diamine], for which the IC50 was 3.99 µM.

Turning to `COc1cc(-c2nc(-c3nc(N)nc(Nc4ccccc4)n3)no2)ccn1` [Example 239, 6-[5-(2-methoxypyridin-4-yl)-1,2,4-oxadiazol-3-yl]-2-N-phenyl-1,3,5-triazine-2,4-diamine], the IC50 worked out at 5.87 µM. With `Nc1nc(Nc2cccc(F)c2)nc(-c2noc(-c3ncccc3F)n2)n1` [Example 240, 2-N-(3-fluorophenyl)-6-[5-(3-fluoropyridin-2-yl)-1,2,4-oxadiazol-3-yl]-1,3,5-triazine-2,4-diamine] the figure was 0.172 µM; with `Nc1nc(Nc2ccc(F)cc2)nc(-c2noc(-c3nccs3)n2)n1` [Example 241], 0.089 µM.

`Nc1nc(Nc2ccccc2)nc(-c2noc(NC3CCCCC3)n2)n1` [Example 242, 6-[5-(cyclohexylamino)-1,2,4-oxadiazol-3-yl]-2-N-phenyl-1,3,5-triazine-2,4-diamine]: the IC50 was 5.37 µM. Turning to `CC1CCN(c2nc(-c3nc(N)nc(Nc4ccccc4)n3)no2)CC1` [Example 243, 6-[5-(4-methylpiperidin-1-yl)-1,2,4-oxadiazol-3-yl]-2-N-phenyl-1,3,5-triazine-2,4-diamine], the IC50 is 7.95 µM. With `Nc1nc(Nc2ccccc2)nc(-c2noc(C(=O)NC3CCc4ccccc43)n2)n1` (stereo not drawn) [Example 244, 3-[4-amino-6-(phenylamino)-1,3,5-triazin-2-yl]-N-(2,3-dihydro-1H-inden-1-yl)-1,2,4-oxadiazole-5-carboxamide] the figure was 2.97 µM.

Take `CC1CCN(c2nc(-c3nc(N)nc(Nc4cccc(F)c4)n3)no2)CC1` [Example 245, 2-N-(3-fluorophenyl)-6-[5-(4-methylpiperidin-1-yl)-1,2,4-oxadiazol-3-yl]-1,3,5-triazine-2,4-diamine]: the IC50 turned out to be 3.09 µM. With `Nc1nc(Nc2ccccc2)nc(-c2noc(N3CCC4(CC3)COC4)n2)n1` [Example 246, 6-(5-{2-oxa-7-azaspiro[3.5]nonan-7-yl}-1,2,4-oxadiazol-3-yl)-2-N-phenyl-1,3,5-triazine-2,4-diamine], the IC50 was found to be 9.36 µM. In the case of `COc1ccccc1-c1nc(-c2nc(N)nc(Nc3ccccc3)n2)no1` [Example 247, 6-[5-(2-methoxyphenyl)-1,2,4-oxadiazol-3-yl]-2-N-phenyl-1,3,5-triazine-2,4-diamine], the IC50 was 0.04 µM. For `COc1ccccc1-c1nc(-c2nc(N)nc(Nc3cccc(F)c3)n2)no1` [Example 248, 2-N-(3-fluorophenyl)-6-[5-(2-methoxyphenyl)-1,2,4-oxadiazol-3-yl]-1,3,5-triazine-2,4-diamine], the IC50 was 0.376 µM. As for `Nc1ccc(-c2nc(-c3nc(N)nc(Nc4cccc(F)c4)n3)no2)nc1` [Example 249, 6-[5-(5-aminopyridin-2-yl)-1,2,4-oxadiazol-3-yl]-2-N-(3-fluorophenyl)-1,3,5-triazine-2,4-diamine], the IC50 worked out at 9.03 µM. In the case of `Nc1nc(Nc2cccc(F)c2)nc(-c2noc(C(=O)NC3COC3)n2)n1` [Example 250, 3-{4-amino-6-[(3-fluorophenyl)amino]-1,3,5-triazin-2-yl}-N-(oxetan-3-yl)-1,2,4-oxadiazole-5-carboxamide] it was 9.85 µM; in that of `CN(c1ccccc1)c1nc(N)nc(-c2noc(-c3n[nH]cc3Br)n2)n1` [Example 251, 6-[5-(4-bromo-1H-pyrazol-3-yl)-1,2,4-oxadiazol-3-yl]-2-N-methyl-2-N-phenyl-1,3,5-triazine-2,4-diamine], 2.53 µM.
